Laboratory results from patent publication USRE35748E, “Treatments employing drug containing matrices for introduction into cellular lesion areas” (priority 1995, dated 1998).
Counter-ions that a name gives are not always drawn.

Experiments:
white blood cells = assay: White blood cell count in treated tumor-bearing mice; type: in vivo, C3H/He mice; settings: 5-FU 100 mg/kg, day 4 post-treatment, mean ± S.E. (Table 3)
From the text: the tail of treatment mice.
(§1) Otherwise, the procedure was the same. The following Table 5 indicates the results.
(§2) The following Table 6 provides the results.

skin overlying the tumor = assay: Skin reaction of skin overlying the tumor; type: in vivo, C3H/He mice
From the text: The skin reaction is scored as follows:
1 = superficial inflammation;
post injection. The skin reaction is scored as follows:
as §1, §2

[1] = Acute animal toxicity / survival; settings: for Animal Survival: ADM 15 mg/kg, deaths usually within 2 days
Protocol: The adriamycin in distilled water (4.45 mg/ml) was mixed with 36 mg/ml bovine collagen (BC) 1:1 to yield a composition ratio of 2.25 mg adriamycin:18 mg BC/ml.

SMILES	White Blood Cells/mm^3 (white blood cells; i.p.)	White Blood Cells/mm^3 (white blood cells; i.t. (EPI 5 mg/kg where present))	Skin Reaction (skin overlying the tumor; 5-FU 75 mg/Kg, i.p., 5 min before X-rays (1000 rad), score 0-3 (Table 9))	Skin Reaction (skin overlying the tumor; 5-FU 75 mg/Kg, i.p., no X-rays, score 0-3 (Table 9))	Skin Reaction (skin overlying the tumor; 5-FU 100 mg/kg, i.t. (EPI 5 mg/kg where present), Day 8, score 0 = no effect, 1 = superficial inflammation, 2 = scab, 3 = ulcer (Table 3))	Skin Reaction (skin overlying the tumor; ADM 15 mg/kg, i.t., Day 8, score 0 = no effect, 1 = superficial inflammation, 2 = scab, 3 = ulcer)	toxicity ([1]; 15 mg/kg, intratumoral injection)	Animal Survival ([1]; i.p.) [%]	Animal Survival ([1]; i.t.) [%]
O=c1[nH]cc(F)c(=O)[nH]1 [5-FU, 5-fluorouracil]	4.5 ± 0.6 Cells/mm^3 (×10^3)	3.5 ± 0.5 Cells/mm^3 (×10^3)	2	2	0	–	–	–	–
COc1cccc2c1C(=O)c1c(O)c3c(c(O)c1C2=O)C[C@@](O)(C(=O)CO)C[C@@H]3O[C@H]1C[C@H](N)[C@H](O)[C@H](C)O1 [Free ADM, doxorubicin-HCl]	–	–	–	–	–	2.0	non-toxic	25	100
